TGI data for twelve compounds are collected here from PubChem BioAssay (NCI).

Some test systems named below: A549 NSCLC; EKVX NSCLC; HCT-15 colon; HOP-62 NSCLC; HOP-92 NSCLC; HS 578T breast; IGROV1 ovarian; KM12 colon; LOX IMVI melanoma; MDA-MB-435; NCI-H226 lung; PC-3 prostate; RPMI-8226 leukemia; SF-539 CNS; SN12C renal; SW-620 colon; U251 CNS.
Common to all, as to assay: NCI anticancer screen, dose series, 48 h

Molecules are shown by their SMILES.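 Growth conditions: 96-well plates. Treatment: test compound, 48 hours, 5 concentrations. Analysis: linear interpolation between bracketing concentrations; unreached endpoints set to highest concentration. At the TGI there is no net growth.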

In the case of `CC1CCCCN1CC(=O)c1ccc2c(c1)Sc1ccccc1O2` (centres undefined), the TGI stood at 30.7 µM in the test with A549 NSCLC; 28.7 µM in the test on EKVX NSCLC; 45.2 µM with HCT-15 colon; 30.7 µM in the test on HOP-62 NSCLC; 30.5 µM in the test on HOP-92 NSCLC; 25.7 µM in the test on HS 578T breast. In addition, the TGI in the test with IGROV1 ovarian was determined as 19.9 µM; in the test with KM12 colon, 30.3 µM; with LOX IMVI melanoma, 38.7 µM; in the test with MDA-MB-435, 29.8 µM; in the test on NCI-H226 lung it was 26.4 µM; in the test with PC-3 prostate it was 26.1 µM. The TGI is greater than 100 µM in the test with RPMI-8226 leukemia; 34 µM in the test with SF-539 CNS; 37.9 µM in the test with SN12C renal; 42.4 µM in the test with SW-620 colon; 31.9 µM in the test with U251 CNS.
In the case of `COC(=O)/C=C(/C(=O)OC)c1cc2ccc3c([nH]c4ccccc43)c(C)c-2c1`, the TGI in the test on A549 NSCLC was greater than 100 µM; with EKVX NSCLC, 24.2 µM; with HCT-15 colon it was 29 µM; in the test with HOP-62 NSCLC it was 37.5 µM; with HOP-92 NSCLC, 5.43 µM; in the test with HS 578T breast, 8.91 µM. Besides, the TGI in the test with IGROV1 ovarian was determined as 13.1 µM; with KM12 colon, 36.5 µM; in the test on LOX IMVI melanoma it was 14.5 µM; in the test on MDA-MB-435, 25.1 µM; in the test on NCI-H226 lung it was 19.8 µM; in the test on PC-3 prostate, 14.2 µM. In addition, the TGI in the test with RPMI-8226 leukemia came to 25.2 µM; in the test with SF-539 CNS it was 31.5 µM; in the test on SN12C renal, 27 µM; in the test with SW-620 colon it was 27.1 µM; in the test with U251 CNS it was 18.1 µM.
For the compound `O=C(O)CC1NC(/C(=C/c2ccccc2O)NC(=O)c2ccccc2)OC1=O` (centres undefined), the TGI was greater than 100 µM in the test on A549 NSCLC; greater than 100 µM in the test with EKVX NSCLC; greater than 100 µM with HCT-15 colon; 29.5 µM in the test on HOP-62 NSCLC; greater than 100 µM in the test on HOP-92 NSCLC; greater than 100 µM in the test on HS 578T breast. Also, the TGI in the test on IGROV1 ovarian is greater than 70.9 µM; in the test on KM12 colon, greater than 100 µM; with LOX IMVI melanoma, greater than 100 µM; with MDA-MB-435 it was greater than 100 µM; in the test on NCI-H226 lung it was greater than 79.5 µM; in the test with PC-3 prostate, greater than 100 µM. The TGI in the test on RPMI-8226 leukemia was greater than 100 µM; in the test with SF-539 CNS, 66.9 µM; in the test on SN12C renal, greater than 100 µM; in the test on SW-620 colon, greater than 100 µM; in the test on U251 CNS, greater than 80.8 µM.
In the case of `COc1c2c(cc3c1OCO3)C13C=CC(OC)CC1N(CC3)C2` (centres undefined), the TGI in the test with A549 NSCLC, in the test on EKVX NSCLC, in the test on HCT-15 colon, with HOP-62 NSCLC, with HOP-92 NSCLC and in the test on HS 578T breast was greater than 100 µM throughout. Moreover, the TGI in the test with IGROV1 ovarian, with KM12 colon, in the test on LOX IMVI melanoma, in the test on MDA-MB-435, with NCI-H226 lung and in the test on PC-3 prostate was greater than 100 µM each time. The TGI in the test on RPMI-8226 leukemia, in the test on SF-539 CNS, in the test with SN12C renal, in the test on SW-620 colon and in the test with U251 CNS was greater than 100 µM throughout.
With `N=C(N)SCc1cc(Cl)cc(Cl)c1O`, the TGI in the test with A549 NSCLC stood at 53.9 µM; in the test on EKVX NSCLC, 42.8 µM; in the test with HCT-15 colon it was 46.8 µM; with HOP-62 NSCLC it was 38 µM; in the test with HOP-92 NSCLC it was 35.1 µM; in the test with HS 578T breast, 72 µM. Moreover, the TGI with IGROV1 ovarian was determined as 38.2 µM; in the test with KM12 colon, 33.7 µM; with LOX IMVI melanoma it was 36.2 µM; in the test with MDA-MB-435, 38 µM; in the test on NCI-H226 lung, 43.1 µM; with PC-3 prostate, 43.9 µM. The TGI worked out at 47.5 µM in the test on RPMI-8226 leukemia; 22.1 µM in the test on SF-539 CNS; 36.6 µM in the test on SN12C renal; 49.4 µM in the test with SW-620 colon; 30 µM with U251 CNS.
For the compound `O=C(COc1ccc(OCC(=O)NNC2=NC(c3cc(F)c(Cl)cc3Cl)CS2)c(Cl)c1)NNC1=NC(c2cc(F)c(Cl)cc2Cl)CS1` (centres undefined), the TGI with A549 NSCLC is 28.6 µM; with EKVX NSCLC, 77.3 µM; with HCT-15 colon, 36 µM; in the test on HOP-62 NSCLC it was greater than 100 µM; in the test on HOP-92 NSCLC, greater than 100 µM; in the test with HS 578T breast, 48.7 µM. Also, the TGI in the test on IGROV1 ovarian is greater than 100 µM; in the test with KM12 colon, greater than 100 µM; with LOX IMVI melanoma, 5.15 µM; in the test with MDA-MB-435 it was 44.6 µM; with NCI-H226 lung, 46 µM; in the test with PC-3 prostate, greater than 100 µM. Also, the TGI in the test on RPMI-8226 leukemia is greater than 100 µM; with SF-539 CNS, 64.5 µM; with SN12C renal it was 43.8 µM; with SW-620 colon, greater than 100 µM; with U251 CNS, 28.5 µM.
In the case of `Cc1ccc(Nc2[nH]c(=O)[nH]c(=O)c2C)cc1Cl`, the TGI in the test on A549 NSCLC, in the test on EKVX NSCLC, in the test on HCT-15 colon, in the test on HOP-62 NSCLC, in the test on HOP-92 NSCLC and in the test with HS 578T breast was greater than 100 µM throughout. Further, the TGI with IGROV1 ovarian, in the test with KM12 colon, in the test on LOX IMVI melanoma, in the test with MDA-MB-435, with NCI-H226 lung and with PC-3 prostate was greater than 100 µM throughout. Further, the TGI with RPMI-8226 leukemia, in the test on SF-539 CNS, in the test with SN12C renal, in the test with SW-620 colon and in the test on U251 CNS was greater than 100 µM each time.
`S=C(N/N=C/c1ccccn1)Nc1ccc(Cl)cc1`: the TGI with A549 NSCLC was greater than 65.4 µM; in the test with EKVX NSCLC, greater than 100 µM; in the test with HCT-15 colon, greater than 100 µM; with HOP-62 NSCLC it was 17.4 µM; with HOP-92 NSCLC, greater than 57.6 µM; with HS 578T breast it was greater than 67.2 µM. Besides, the TGI in the test with IGROV1 ovarian was 25.6 µM; in the test on KM12 colon, greater than 100 µM; in the test with LOX IMVI melanoma, greater than 35.3 µM; in the test on MDA-MB-435, greater than 100 µM; in the test on NCI-H226 lung, 3.33 µM; with PC-3 prostate, greater than 100 µM. The TGI was greater than 26.4 µM with RPMI-8226 leukemia; 14.4 µM with SF-539 CNS; greater than 100 µM in the test on SN12C renal; greater than 100 µM in the test on SW-620 colon; 8.3 µM with U251 CNS.
For the compound `Cc1c(-c2ccccc2)c(C#N)c2nnn(C3CCCCC3)c(=O)n12`, the TGI in the test on A549 NSCLC is greater than 100 µM; in the test on EKVX NSCLC it was greater than 100 µM; with HCT-15 colon, greater than 100 µM; in the test with HOP-62 NSCLC, 46.6 µM; with HOP-92 NSCLC, 80.8 µM; with HS 578T breast, greater than 100 µM. Moreover, the TGI in the test on IGROV1 ovarian, in the test with KM12 colon, in the test on LOX IMVI melanoma, in the test with MDA-MB-435, with NCI-H226 lung and in the test on PC-3 prostate was greater than 100 µM in each case. The TGI with RPMI-8226 leukemia, with SF-539 CNS, with SN12C renal, in the test on SW-620 colon and in the test with U251 CNS was greater than 100 µM in each case.
Consider `CCCCCCCNC(P(=O)(O)O)P(=O)(O)O`, for which the TGI is greater than 100 µM with A549 NSCLC; greater than 100 µM in the test on EKVX NSCLC; greater than 100 µM in the test with HCT-15 colon; greater than 100 µM in the test with HOP-62 NSCLC; greater than 100 µM in the test on HOP-92 NSCLC; 97.5 µM in the test with HS 578T breast. In addition, the TGI in the test on IGROV1 ovarian, in the test with KM12 colon, in the test on LOX IMVI melanoma, in the test with MDA-MB-435, with NCI-H226 lung and in the test with PC-3 prostate was greater than 100 µM throughout. Moreover, the TGI with RPMI-8226 leukemia, in the test with SF-539 CNS, in the test with SN12C renal, with SW-620 colon and in the test with U251 CNS was greater than 100 µM in each case.
`CCOC(=O)/C(N=Nc1ccc(-n2c(C)nc3ccc(Br)cc3c2=O)cc1)=C(/C)O`: the TGI in the test on A549 NSCLC was greater than 100 µM; in the test on EKVX NSCLC, greater than 100 µM; with HCT-15 colon, greater than 100 µM; in the test on HOP-62 NSCLC, greater than 100 µM; in the test on HOP-92 NSCLC, greater than 100 µM; in the test with HS 578T breast, 70.7 µM. The TGI in the test on IGROV1 ovarian, in the test on KM12 colon, with LOX IMVI melanoma, with MDA-MB-435, in the test on NCI-H226 lung and in the test on PC-3 prostate was greater than 100 µM throughout. For the same compound, the TGI in the test with RPMI-8226 leukemia, in the test on SF-539 CNS, with SN12C renal, in the test on SW-620 colon and in the test on U251 CNS was greater than 100 µM throughout.
Regarding `NC(=O)C(=CNC(=S)Nc1ccc(Cl)c(Cl)c1)C(N)=O`, the TGI was greater than 100 µM in the test with A549 NSCLC; greater than 100 µM with EKVX NSCLC; greater than 100 µM in the test with HCT-15 colon; greater than 100 µM in the test with HOP-62 NSCLC; greater than 100 µM in the test with HOP-92 NSCLC; greater than 88.9 µM in the test with HS 578T breast. The TGI in the test on IGROV1 ovarian, with KM12 colon, in the test with LOX IMVI melanoma, with MDA-MB-435, in the test with NCI-H226 lung and with PC-3 prostate was greater than 100 µM in each case. Moreover, the TGI with RPMI-8226 leukemia, in the test on SF-539 CNS, in the test with SN12C renal, in the test on SW-620 colon and in the test with U251 CNS was greater than 100 µM in each case.
